From the kinase profiling compilation of Christmann-Franck et al. (2016)

Experiments:
Assay in all cases: KINOMEscan competition binding
Conditions in all cases: compound 10.0 µM
[1] = biological target: PIM2 (human) (UniProt Q9P1W9)
[2] = biological target: ULK2 (human) (UniProt Q8IYT8)
[3] = biological target: DYRK2 (human) (UniProt Q92630)
[4] = biological target: PDGFRB (human) (UniProt P09619)
[5] = biological target: JAK3 JH1 catalytic (human) (UniProt P52333)
[6] = biological target: PIK3CA (human) (UniProt P42336)
Sequence of PIK3CA (human) (P42336 whole entry, looked up): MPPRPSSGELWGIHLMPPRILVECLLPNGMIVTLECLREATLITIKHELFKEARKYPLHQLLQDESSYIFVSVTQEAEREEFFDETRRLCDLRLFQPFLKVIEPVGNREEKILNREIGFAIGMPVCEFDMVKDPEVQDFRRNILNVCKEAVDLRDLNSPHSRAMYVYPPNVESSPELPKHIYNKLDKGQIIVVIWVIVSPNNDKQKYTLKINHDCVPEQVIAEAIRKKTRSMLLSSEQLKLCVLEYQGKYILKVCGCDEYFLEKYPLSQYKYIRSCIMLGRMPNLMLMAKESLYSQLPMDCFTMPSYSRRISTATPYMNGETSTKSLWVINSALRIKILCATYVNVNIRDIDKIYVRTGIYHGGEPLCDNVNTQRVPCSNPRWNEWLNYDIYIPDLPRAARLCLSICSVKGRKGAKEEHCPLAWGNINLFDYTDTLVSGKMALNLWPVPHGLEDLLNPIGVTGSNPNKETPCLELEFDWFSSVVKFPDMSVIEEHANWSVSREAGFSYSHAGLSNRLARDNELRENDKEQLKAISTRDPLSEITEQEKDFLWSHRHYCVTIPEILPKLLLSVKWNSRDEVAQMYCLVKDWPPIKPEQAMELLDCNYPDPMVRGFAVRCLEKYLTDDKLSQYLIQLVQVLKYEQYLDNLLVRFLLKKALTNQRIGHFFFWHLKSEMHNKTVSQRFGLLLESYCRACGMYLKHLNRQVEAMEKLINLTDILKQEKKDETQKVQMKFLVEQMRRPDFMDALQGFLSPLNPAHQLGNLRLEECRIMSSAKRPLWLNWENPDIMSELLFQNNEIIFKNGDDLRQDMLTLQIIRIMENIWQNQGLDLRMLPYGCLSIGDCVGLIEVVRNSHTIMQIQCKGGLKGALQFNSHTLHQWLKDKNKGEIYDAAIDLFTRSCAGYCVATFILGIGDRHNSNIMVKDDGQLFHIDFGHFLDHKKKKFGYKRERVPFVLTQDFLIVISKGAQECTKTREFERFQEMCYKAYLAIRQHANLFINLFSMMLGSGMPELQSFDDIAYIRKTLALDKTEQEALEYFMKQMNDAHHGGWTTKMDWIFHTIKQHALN

[7] = biological target: SIK1 (human) (UniProt P57059)
[8] = biological target: CDK8 (human) (UniProt P49336)
Sequence of CDK8 (human) (P49336 whole entry, looked up): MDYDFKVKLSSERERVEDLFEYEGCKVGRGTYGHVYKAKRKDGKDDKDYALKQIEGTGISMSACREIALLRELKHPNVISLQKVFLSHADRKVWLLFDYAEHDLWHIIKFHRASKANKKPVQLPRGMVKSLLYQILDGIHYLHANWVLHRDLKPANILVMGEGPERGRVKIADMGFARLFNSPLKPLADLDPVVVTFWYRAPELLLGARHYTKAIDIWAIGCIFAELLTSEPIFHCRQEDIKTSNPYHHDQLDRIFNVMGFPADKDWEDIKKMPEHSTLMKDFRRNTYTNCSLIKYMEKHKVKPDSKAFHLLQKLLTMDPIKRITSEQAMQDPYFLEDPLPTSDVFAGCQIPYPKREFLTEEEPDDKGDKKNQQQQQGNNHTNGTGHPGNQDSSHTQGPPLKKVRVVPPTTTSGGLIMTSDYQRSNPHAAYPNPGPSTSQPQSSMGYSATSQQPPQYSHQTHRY

[9] = biological target: PRKG1 (human) (UniProt Q13976)
[10] = biological target: CAMK2A (human) (UniProt Q9UQM7)
[11] = biological target: CSNK1G2 (human) (UniProt P78368)
[12] = biological target: BRSK1 (human) (UniProt Q8TDC3)
[13] = biological target: RPS6KA2 KD2 (human) (UniProt Q15349)
[14] = biological target: PIP5K1C (human) (UniProt O60331)
[15] = biological target: STK17A (human) (UniProt Q9UEE5)
[16] = biological target: SBK1 (human) (UniProt Q52WX2)
[17] = biological target: PIK3CG (human) (UniProt P48736)
[18] = biological target: ADCK4 (human) (UniProt Q96D53)
Sequence of ADCK4 (human) (Q96D53 whole entry, looked up): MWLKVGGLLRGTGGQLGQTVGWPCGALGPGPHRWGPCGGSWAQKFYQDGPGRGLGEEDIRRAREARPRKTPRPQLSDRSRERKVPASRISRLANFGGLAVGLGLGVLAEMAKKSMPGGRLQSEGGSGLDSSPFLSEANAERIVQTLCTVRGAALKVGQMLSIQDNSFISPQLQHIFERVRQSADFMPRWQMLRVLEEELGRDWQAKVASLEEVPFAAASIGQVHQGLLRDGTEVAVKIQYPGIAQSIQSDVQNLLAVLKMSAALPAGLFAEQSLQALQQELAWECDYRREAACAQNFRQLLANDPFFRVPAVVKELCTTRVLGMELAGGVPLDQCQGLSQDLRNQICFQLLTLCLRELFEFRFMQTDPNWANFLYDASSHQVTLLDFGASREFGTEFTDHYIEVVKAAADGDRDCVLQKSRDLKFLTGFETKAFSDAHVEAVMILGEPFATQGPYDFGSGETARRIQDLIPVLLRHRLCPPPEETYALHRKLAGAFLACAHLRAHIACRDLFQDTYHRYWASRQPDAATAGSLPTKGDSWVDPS

[19] = biological target: RET (human) (UniProt P07949)
[20] = biological target: TESK1 (human) (UniProt Q15569)
[21] = biological target: BRAF (human) (UniProt P15056)
[22] = biological target: NEK3 (human) (UniProt P51956)
[23] = biological target: RPS6KA6 KD2 (human) (UniProt Q9UK32)
[24] = biological target: AKT2 (human) (UniProt P31751)
Sequence of AKT2 (human) (P31751 whole entry, looked up): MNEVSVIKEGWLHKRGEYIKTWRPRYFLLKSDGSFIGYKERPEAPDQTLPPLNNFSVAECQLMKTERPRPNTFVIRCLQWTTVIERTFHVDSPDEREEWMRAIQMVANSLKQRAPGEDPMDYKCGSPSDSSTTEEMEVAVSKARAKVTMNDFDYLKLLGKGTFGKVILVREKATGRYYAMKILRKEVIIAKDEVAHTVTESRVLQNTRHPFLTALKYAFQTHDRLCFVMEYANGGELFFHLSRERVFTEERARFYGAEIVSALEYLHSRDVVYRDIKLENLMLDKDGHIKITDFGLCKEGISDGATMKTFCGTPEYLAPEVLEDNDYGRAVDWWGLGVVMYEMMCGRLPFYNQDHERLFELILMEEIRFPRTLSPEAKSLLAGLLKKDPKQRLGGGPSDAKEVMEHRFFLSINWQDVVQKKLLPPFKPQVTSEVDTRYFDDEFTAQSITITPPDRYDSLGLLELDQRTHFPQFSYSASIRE

[25] = biological target: IRAK4 (human) (UniProt Q9NWZ3)
[26] = biological target: CDKL1 (human) (UniProt Q00532)
[27] = biological target: EPHB1 (human) (UniProt P54762)
[28] = biological target: MAP3K9 (human) (UniProt P80192)
Sequence of MAP3K9 (human) (P80192 whole entry, looked up): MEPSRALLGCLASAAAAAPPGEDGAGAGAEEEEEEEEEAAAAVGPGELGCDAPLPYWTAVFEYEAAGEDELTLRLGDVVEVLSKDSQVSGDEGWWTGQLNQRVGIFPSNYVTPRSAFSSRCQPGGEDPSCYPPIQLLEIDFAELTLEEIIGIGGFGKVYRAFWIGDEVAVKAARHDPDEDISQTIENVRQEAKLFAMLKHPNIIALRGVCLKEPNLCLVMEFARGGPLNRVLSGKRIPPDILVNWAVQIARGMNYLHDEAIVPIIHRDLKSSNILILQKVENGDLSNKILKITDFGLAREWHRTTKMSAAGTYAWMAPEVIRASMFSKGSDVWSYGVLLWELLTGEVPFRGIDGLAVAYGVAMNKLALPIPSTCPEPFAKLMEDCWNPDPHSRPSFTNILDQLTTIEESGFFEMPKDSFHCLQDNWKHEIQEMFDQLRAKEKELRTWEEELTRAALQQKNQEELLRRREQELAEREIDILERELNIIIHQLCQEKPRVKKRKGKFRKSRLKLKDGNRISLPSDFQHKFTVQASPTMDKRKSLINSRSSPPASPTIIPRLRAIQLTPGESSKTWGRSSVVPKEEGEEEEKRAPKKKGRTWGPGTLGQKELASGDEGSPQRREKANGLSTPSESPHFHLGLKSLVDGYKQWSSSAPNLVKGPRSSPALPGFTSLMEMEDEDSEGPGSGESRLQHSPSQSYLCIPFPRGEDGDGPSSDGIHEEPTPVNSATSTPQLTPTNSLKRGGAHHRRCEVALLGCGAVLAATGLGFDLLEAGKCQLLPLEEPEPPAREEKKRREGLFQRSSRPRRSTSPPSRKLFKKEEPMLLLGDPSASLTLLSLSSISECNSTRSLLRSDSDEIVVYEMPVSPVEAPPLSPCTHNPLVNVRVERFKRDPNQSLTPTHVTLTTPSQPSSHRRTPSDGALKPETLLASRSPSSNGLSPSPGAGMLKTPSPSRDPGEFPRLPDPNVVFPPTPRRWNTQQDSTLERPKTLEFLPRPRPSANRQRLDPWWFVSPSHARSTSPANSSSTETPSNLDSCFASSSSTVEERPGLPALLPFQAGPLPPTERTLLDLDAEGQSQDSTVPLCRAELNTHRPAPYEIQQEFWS

[29] = biological target: NEK2 (human) (UniProt P51955)
[30] = biological target: STK11 (human) (UniProt Q15831)
[31] = biological target: RIPK4 (human) (UniProt P57078)
[32] = biological target: TAOK3 (human) (UniProt Q9H2K8)
Sequence of TAOK3 (human) (Q9H2K8 whole entry, looked up): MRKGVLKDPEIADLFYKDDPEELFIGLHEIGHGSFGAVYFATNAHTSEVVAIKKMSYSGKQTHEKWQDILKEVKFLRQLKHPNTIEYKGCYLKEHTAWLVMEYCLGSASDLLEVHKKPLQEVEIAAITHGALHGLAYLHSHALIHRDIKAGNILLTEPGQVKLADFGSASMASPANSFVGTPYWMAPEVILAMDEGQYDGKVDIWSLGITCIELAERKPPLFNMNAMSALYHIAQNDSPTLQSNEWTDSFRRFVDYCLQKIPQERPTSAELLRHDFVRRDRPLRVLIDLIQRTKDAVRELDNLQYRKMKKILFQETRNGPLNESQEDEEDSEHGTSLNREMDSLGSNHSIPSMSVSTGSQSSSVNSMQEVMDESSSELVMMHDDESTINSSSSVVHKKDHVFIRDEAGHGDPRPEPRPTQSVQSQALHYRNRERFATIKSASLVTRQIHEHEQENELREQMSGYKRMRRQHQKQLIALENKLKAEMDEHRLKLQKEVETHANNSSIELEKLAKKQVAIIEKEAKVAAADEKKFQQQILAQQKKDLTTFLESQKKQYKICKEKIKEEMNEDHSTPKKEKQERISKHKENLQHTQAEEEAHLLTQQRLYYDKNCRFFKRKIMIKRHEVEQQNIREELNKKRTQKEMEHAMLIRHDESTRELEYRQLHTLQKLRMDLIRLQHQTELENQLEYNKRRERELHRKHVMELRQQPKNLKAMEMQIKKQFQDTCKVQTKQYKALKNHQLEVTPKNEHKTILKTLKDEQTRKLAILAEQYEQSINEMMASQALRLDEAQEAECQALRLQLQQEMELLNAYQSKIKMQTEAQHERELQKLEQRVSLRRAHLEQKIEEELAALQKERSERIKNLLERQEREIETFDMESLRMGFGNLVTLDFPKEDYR

[33] = biological target: ZAP70 (human) (UniProt P43403)
[34] = biological target: NLK (human) (UniProt Q9UBE8)
[35] = biological target: EPHA7 (human) (UniProt Q15375)
[36] = biological target: CSNK1E (human) (UniProt P49674)
[37] = biological target: MATK (human) (UniProt P42679)
Sequence of MATK (human) (P42679 whole entry, looked up): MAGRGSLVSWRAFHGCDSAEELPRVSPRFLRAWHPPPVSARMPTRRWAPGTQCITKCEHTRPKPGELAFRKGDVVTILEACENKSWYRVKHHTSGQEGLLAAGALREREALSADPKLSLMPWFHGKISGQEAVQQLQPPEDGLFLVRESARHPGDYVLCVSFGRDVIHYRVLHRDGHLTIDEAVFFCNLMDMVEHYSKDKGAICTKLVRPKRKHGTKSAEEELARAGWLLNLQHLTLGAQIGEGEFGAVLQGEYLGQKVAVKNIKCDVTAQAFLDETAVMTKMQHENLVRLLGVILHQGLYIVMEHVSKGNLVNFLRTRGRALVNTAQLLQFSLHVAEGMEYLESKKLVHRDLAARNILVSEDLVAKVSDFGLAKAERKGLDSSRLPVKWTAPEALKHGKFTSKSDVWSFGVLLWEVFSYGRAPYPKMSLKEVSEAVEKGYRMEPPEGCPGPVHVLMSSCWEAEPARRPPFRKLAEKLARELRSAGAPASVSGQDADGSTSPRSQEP

[38] = biological target: SRPK3 (human) (UniProt Q9UPE1)
[39] = biological target: CRK2 (P.falciparum) (UniProt P61075)
[40] = biological target: EPHA1 (human) (UniProt P21709)

Structure (SMILES) | kinase still bound, per cent of control [1] | kinase still bound, per cent of control [3] | kinase still bound, per cent of control [4] | kinase still bound, per cent of control [5] | kinase still bound, per cent of control [7] | kinase still bound, per cent of control [8] | kinase still bound, per cent of control [9] | kinase still bound, per cent of control [10] | kinase still bound, per cent of control [11] | kinase still bound, per cent of control [13] | kinase still bound, per cent of control [14] | kinase still bound, per cent of control [15] | kinase still bound, per cent of control [16] | kinase still bound, per cent of control [17] | kinase still bound, per cent of control [18] | kinase still bound, per cent of control [21] | kinase still bound, per cent of control [22] | kinase still bound, per cent of control [24] | kinase still bound, per cent of control [25] | kinase still bound, per cent of control [26] | other results
O=c1cc(N2CCOCC2)oc2c(-c3cccc4c3sc3ccccc34)cccc12 | 84% | 100% | 76% | 81% | 100% | 100% | 100% | 78% | 85% | 83% | 61% | 95% | 100% | 1.3% | 73% | 100% | 100% | 51% | 99% | 87% | kinase still bound, per cent of control [2]: 98%; kinase still bound, per cent of control [6]: 22%; kinase still bound, per cent of control [12]: 100%; kinase still bound, per cent of control [19]: 100%; kinase still bound, per cent of control [20]: 72%; kinase still bound, per cent of control [23]: 79%; kinase still bound, per cent of control [27]: 100%; kinase still bound, per cent of control [28]: 100%; kinase still bound, per cent of control [29]: 96%; kinase still bound, per cent of control [30]: 75%; kinase still bound, per cent of control [31]: 100%; kinase still bound, per cent of control [32]: 97%; kinase still bound, per cent of control [33]: 100%; kinase still bound, per cent of control [34]: 88%; kinase still bound, per cent of control [35]: 85%; kinase still bound, per cent of control [36]: 76%; kinase still bound, per cent of control [37]: 99%; kinase still bound, per cent of control [38]: 100%; kinase still bound, per cent of control [39]: 100%; kinase still bound, per cent of control [40]: 92%
COc1cc(C(=O)N2CCC(N3CCN(C)CC3)CC2)ccc1Nc1ncc2c(n1)N(C)c1ccccc1C(=O)N2C | 100% | 76% | 100% | 100% | 77% | 100% | 98% | 21% | 100% | 7.5% | 96% | 100% | 100% | 15% | 94% | 81% | 100% | 100% | 83% | 78% | kinase still bound, per cent of control [2]: 67%; kinase still bound, per cent of control [6]: 74%; kinase still bound, per cent of control [12]: 81%; kinase still bound, per cent of control [19]: 100%; kinase still bound, per cent of control [20]: 82%; kinase still bound, per cent of control [23]: 2.2%; kinase still bound, per cent of control [27]: 98%; kinase still bound, per cent of control [28]: 93%; kinase still bound, per cent of control [29]: 100%; kinase still bound, per cent of control [30]: 96%; kinase still bound, per cent of control [31]: 74%; kinase still bound, per cent of control [32]: 24%; kinase still bound, per cent of control [33]: 79%; kinase still bound, per cent of control [34]: 50%; kinase still bound, per cent of control [35]: 97%; kinase still bound, per cent of control [36]: 95%; kinase still bound, per cent of control [37]: 100%; kinase still bound, per cent of control [38]: 72%; kinase still bound, per cent of control [39]: 100%; kinase still bound, per cent of control [40]: 100%
C[C@@H](Oc1cc(-c2cnn(C3CCNCC3)c2)cnc1N)c1c(Cl)ccc(F)c1Cl | 100% | 9.6% | 44% | 0.65% | 24% | 100% | 100% | 100% | 100% | 28% | 63% | 100% | 6% | 100% | 3.4% | 53% | 100% | 100% | 24% | 81% | kinase still bound, per cent of control [2]: 4.7%; kinase still bound, per cent of control [6]: 100%; kinase still bound, per cent of control [12]: 48%; kinase still bound, per cent of control [23]: 35%; kinase still bound, per cent of control [27]: 0.15%; kinase still bound, per cent of control [28]: 80%; kinase still bound, per cent of control [29]: 81%; kinase still bound, per cent of control [30]: 57%; kinase still bound, per cent of control [31]: 8.2%; kinase still bound, per cent of control [32]: 1.4%; kinase still bound, per cent of control [33]: 29%; kinase still bound, per cent of control [34]: 93%; kinase still bound, per cent of control [35]: 0.3%; kinase still bound, per cent of control [36]: 100%; kinase still bound, per cent of control [37]: 64%; kinase still bound, per cent of control [38]: 15%; kinase still bound, per cent of control [39]: 95%; kinase still bound, per cent of control [40]: 0.85%
COc1cc2ncn(-c3cc(OCc4ccccc4C(F)(F)F)c(C(N)=O)s3)c2cc1OC | 100% | 37% | 5.3% | 40% | 40% | 94% | 100% | 76% | 100% | 74% | 10% | 100% | 96% | 18% | 71% | 100% | 100% | 100% | 58% | 72% | kinase still bound, per cent of control [19]: 39%; kinase still bound, per cent of control [20]: 73%; kinase still bound, per cent of control [27]: 96%; kinase still bound, per cent of control [28]: 71%; kinase still bound, per cent of control [29]: 14%; kinase still bound, per cent of control [30]: 37%; kinase still bound, per cent of control [31]: 100%; kinase still bound, per cent of control [32]: 89%; kinase still bound, per cent of control [33]: 95%; kinase still bound, per cent of control [34]: 68%; kinase still bound, per cent of control [35]: 79%; kinase still bound, per cent of control [36]: 77%; kinase still bound, per cent of control [37]: 85%; kinase still bound, per cent of control [38]: 16%; kinase still bound, per cent of control [39]: 93%; kinase still bound, per cent of control [40]: 84%
